This series is described as follows: activity coefficient (dimensionless); of the first substance listed, at infinite dilution; xn = mol fraction of the nth substance listed. Conditions: 101 kPa, Liquid, x1 = 0.

Values joined by “and” are separate entries in the source; they are usually repeats but may differ in a detail not shown here. Identical values can stand only once. ± gives the expanded uncertainty stated by the source.

As for `CC(C)CO` [2-methyl-1-propanol] + CCCCCC[n+]1ccn(C)c1.O=S(=O)([N-]S(=O)(=O)C(F)(F)F)C(F)(F)F, the activity coefficient by setting is: (293.15 K, Chromatography) 2.39 and 2.44; (313.15 K, Chromatography) 1.88 and 1.87; (333.15 K, Chromatography) 1.49 and 1.52; (353.15 K, Chromatography) 1.3 ± 0.1.
Take `CC(C)CO` [2-methyl-1-propanol] + CCCCn1cc[n+](C)c1.COS(=O)(=O)[O-]: the activity coefficient came out at 1.44 ± 0.12 (298.15 K, Chromatography); 1.29 ± 0.11 (313.15 K, Chromatography); 1.28 ± 0.1 (333.15 K, Chromatography); 1.12 ± 0.09 (353.15 K, Chromatography).
Regarding `CC(C)CO` [2-methyl-1-propanol] + CCCCn1cc[n+](C)c1.F[P-](F)(F)(F)(F)F, the activity coefficient turned out to be 8.39 ± 0.57 (293.15 K, Chromatography); 5.74 ± 0.39 (313.15 K, Chromatography); 4.23 ± 0.29 (333.15 K, Chromatography); 3.23 ± 0.22 (353.15 K, Chromatography).
On to `CC(C)(C)O` [2-methylpropan-2-ol] + CCCCCC[n+]1ccn(C)c1.O=S(=O)([N-]S(=O)(=O)C(F)(F)F)C(F)(F)F, for which the activity coefficient by setting is: (293.15 K, Chromatography) 1.68 and 1.66; (313.15 K, Chromatography) 1.4 and 1.35; (333.15 K, Chromatography) 1.15 and 1.16; (353.15 K, Chromatography) 1.04 and 1.03.
Consider `CC(C)(C)O` [2-methylpropan-2-ol] + CCCCn1cc[n+](C)c1.COS(=O)(=O)[O-], for which the activity coefficient (298.15 K, Chromatography) stood at 1.38 ± 0.11; the activity coefficient (313.15 K, Chromatography) was determined as 1.27 ± 0.1; the activity coefficient (333.15 K, Chromatography) came out at 1.19 ± 0.1; the activity coefficient (353.15 K, Chromatography) worked out at 1.22 ± 0.1.
As for `CC(C)(C)O` [2-methylpropan-2-ol] + CCCCn1cc[n+](C)c1.F[P-](F)(F)(F)(F)F, the activity coefficient is, setting by setting: (293.15 K, Chromatography) 4.83 ± 0.33; (313.15 K, Chromatography) 3.68 ± 0.25; (333.15 K, Chromatography) 2.97 ± 0.2; (353.15 K, Chromatography) 2.45 ± 0.17.
For `CCCCO` [butan-1-ol] + CCCCCC[n+]1ccn(C)c1.O=S(=O)([N-]S(=O)(=O)C(F)(F)F)C(F)(F)F, in that order: 2.5 ± 0.19, 2.02 ± 0.16, 1.63 ± 0.12 and 1.33 ± 0.1.
Take `CCCCO` [butan-1-ol] + CCCCn1cc[n+](C)c1.COS(=O)(=O)[O-]: the activity coefficient was 1.68 ± 0.14 (298.15 K), 1.44 ± 0.11 (313.15 K), 1.37 ± 0.1 (333.15 K) and 1.21 ± 0.08 (353.15 K).
`CCCCO` [butan-1-ol] + CCCCn1cc[n+](C)c1.F[P-](F)(F)(F)(F)F: the activity coefficient came to 8.17 ± 0.56 (293.15 K, Chromatography); 5.9 ± 0.4 (313.15 K, Chromatography); 4.49 ± 0.31 (333.15 K, Chromatography); 3.43 ± 0.23 (353.15 K, Chromatography).
In the case of `CCC(C)O` (stereo unspecified) [butan-2-ol] + CCCCCC[n+]1ccn(C)c1.O=S(=O)([N-]S(=O)(=O)C(F)(F)F)C(F)(F)F, the activity coefficient runs as follows: (293.15 K, Chromatography) 2.03 ± 0.16; (313.15 K, Chromatography) 1.67 and 1.65; (333.15 K, Chromatography) 1.37 and 1.38; (353.15 K, Chromatography) 1.2 and 1.21.
With `CCC(C)O` (stereo unspecified) [butan-2-ol] + CCCCn1cc[n+](C)c1.COS(=O)(=O)[O-], the activity coefficient runs as follows: (298.15 K, Chromatography) 1.45 ± 0.12; (313.15 K, Chromatography) 1.31 ± 0.11; (333.15 K, Chromatography) 1.27 ± 0.1; (353.15 K, Chromatography) 1.21 ± 0.1.
For `CCC(C)O` (stereo unspecified) [butan-2-ol] + CCCCn1cc[n+](C)c1.F[P-](F)(F)(F)(F)F, the activity coefficient by setting is: (293.15 K, Chromatography) 6.47 ± 0.44; (313.15 K, Chromatography) 4.8 ± 0.33; (333.15 K, Chromatography) 3.69 ± 0.25; (353.15 K, Chromatography) 2.87 ± 0.2.
Take `CCO` [ethanol] + CCCCCC[n+]1ccn(C)c1.O=S(=O)([N-]S(=O)(=O)C(F)(F)F)C(F)(F)F: the activity coefficient (293.15 K, Chromatography) is 1.85 and 1.82; the activity coefficient (313.15 K, Chromatography) is 1.49 and 1.47; the activity coefficient (333.15 K, Chromatography) is 1.24 and 1.23; the activity coefficient (353.15 K, Chromatography) was 1.05 and 1.03.
With `CCO` [ethanol] + CCCCn1cc[n+](C)c1.COS(=O)(=O)[O-], the activity coefficient came to 0.64 ± 0.05 (298.15 K, Chromatography); 0.61 ± 0.05 (313.15 K, Chromatography); 0.62 ± 0.05 (333.15 K, Chromatography); 0.59 ± 0.05 (353.15 K, Chromatography).
Consider `CCO` [ethanol] + CCCCn1cc[n+](C)c1.F[P-](F)(F)(F)(F)F, for which the activity coefficient is, setting by setting: (293.15 K, Chromatography) 3.81 ± 0.26; (313.15 K, Chromatography) 2.94 ± 0.2; (333.15 K, Chromatography) 2.32 ± 0.16; (353.15 K, Chromatography) 1.85 ± 0.12.
`CO` [methanol] + CCCCCC[n+]1ccn(C)c1.O=S(=O)([N-]S(=O)(=O)C(F)(F)F)C(F)(F)F: the activity coefficient was 1.54 and 1.5 (293.15 K, Chromatography); 1.27 and 1.26 (313.15 K, Chromatography); 1.08 and 1.05 (333.15 K, Chromatography); 0.93 and 0.91 (353.15 K, Chromatography).
For the compound `CO` [methanol] + CCCCn1cc[n+](C)c1.COS(=O)(=O)[O-], the activity coefficient was 0.39 ± 0.04 (298.15 K, Chromatography); 0.36 ± 0.04 (313.15 K, Chromatography); 0.33 ± 0.04 (333.15 K, Chromatography); 0.38 ± 0.04 (353.15 K, Chromatography).
Regarding `CO` [methanol] + CCCCn1cc[n+](C)c1.F[P-](F)(F)(F)(F)F, the activity coefficient amounted to 2.59 ± 0.18 (293.15 K, Chromatography); 2.06 ± 0.14 (313.15 K, Chromatography); 1.67 ± 0.11 (333.15 K, Chromatography); 1.36 ± 0.09 (353.15 K, Chromatography).
As for `CCCO` [propan-1-ol] + CCCCCC[n+]1ccn(C)c1.O=S(=O)([N-]S(=O)(=O)C(F)(F)F)C(F)(F)F, the activity coefficient was 2.08 and 2.09 (293.15 K, Chromatography); 1.68 and 1.65 (313.15 K, Chromatography); 1.38 ± 0.1 (333.15 K, Chromatography); 1.19 and 1.18 (353.15 K, Chromatography).
In the case of `CCCO` [propan-1-ol] + CCCCn1cc[n+](C)c1.COS(=O)(=O)[O-], the activity coefficient reads like this: (298.15 K, Chromatography) 0.96 ± 0.08; (313.15 K, Chromatography) 0.88 ± 0.07; (333.15 K, Chromatography) 0.89 ± 0.07; (353.15 K, Chromatography) 0.82 ± 0.07.
As to `CCCO` [propan-1-ol] + CCCCn1cc[n+](C)c1.F[P-](F)(F)(F)(F)F, the activity coefficient was 5.53 ± 0.38 (293.15 K, Chromatography); 4.14 ± 0.28 (313.15 K, Chromatography); 3.18 ± 0.22 (333.15 K, Chromatography); 2.45 ± 0.17 (353.15 K, Chromatography).
In the case of `CC(C)O` [propan-2-ol] + CCCCCC[n+]1ccn(C)c1.O=S(=O)([N-]S(=O)(=O)C(F)(F)F)C(F)(F)F, the activity coefficient by setting is: (293.15 K, Chromatography) 1.95 ± 0.15; (313.15 K, Chromatography) 1.56 and 1.53; (333.15 K, Chromatography) 1.17 and 1.15; (353.15 K, Chromatography) 1.08 and 1.02.
As to `CC(C)O` [propan-2-ol] + CCCCn1cc[n+](C)c1.COS(=O)(=O)[O-], the activity coefficient was 1.03 ± 0.08 (298.15 K, Chromatography); 0.94 ± 0.08 (313.15 K, Chromatography); 0.91 ± 0.07 (333.15 K, Chromatography); 0.88 ± 0.07 (353.15 K, Chromatography).
Consider `CC(C)O` [propan-2-ol] + CCCCn1cc[n+](C)c1.F[P-](F)(F)(F)(F)F, for which the activity coefficient stood at 4.8 ± 0.33 (293.15 K, Chromatography); 3.64 ± 0.25 (313.15 K, Chromatography); 2.83 ± 0.19 (333.15 K, Chromatography); 2.25 ± 0.15 (353.15 K, Chromatography).

The values are drawn from the NIST ThermoML archive (doi:10.1021/je800355e).
